Assays:
Human Melanocortin (MC3) = biological target: T1, Human Melanocortin (MC3) (Homo sapiens, UniProt P41968); assay: Radioligand binding, human melanocortin MC3 membranes, FlashPlate, [125I]-NDP-αMSH; conditions: compound at 10 μM, [125I]-NDP-αMSH
T1 construct: purchased Perkin Elmer Biosignal
How it was run: (§1)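 Cloned human receptor membranes were coated onto FlashPlate wells and incubated with radioligand and compound (added from a 0.5 mM DMSO daughter plate) for 1 hour at room temperature in the dark. Scintillation counting gave percent inhibition, with DMSO defining total and reference ligand defining non-specific binding.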

Human opioid (ORL1) = biological target: T2, Human opioid (ORL1) (Homo sapiens, UniProt P41146); assay: Radioligand binding, human opioid ORL1 membranes, FlashPlate, [125I]-Nociceptin; conditions: compound at 10 μM, [125I]-Nociceptin
T2 construct: purchased Perkin Elmer Biosignal
How it was run: as §1

Human neurokinin (NK1) = biological target: T3, Human neurokinin (NK1) (Homo sapiens, UniProt P25103); assay: Radioligand binding, human neurokinin NK1 membranes, filtration, [125I]-Substance P; conditions: compound at 10 μM, [125I]-Substance P
T3 construct: purchased Perkin Elmer Biosignal
How it was run: (§2)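 Filtration binding on cloned human receptor membranes (1 Unit/well), [125I]-Substance P for NK1 and [3H]-Diprenorphine for KOP, 1 h at room temperature. Filters PEI-presoaked, washed with cold 50 mM Tris-HCl pH 7.4, counted by scintillation; percent inhibition calculated, reference ligand defining non-specific binding.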

Mouse urotensin (mUR2) = biological target: T4, Mouse urotensin (mUR2) (Mus musculus, UniProt Q8VIH9); assay: Radioligand binding, mouse urotensin mUR2 membranes, FlashPlate, [125I]-Urotensin II; conditions: compound at 10 μM, [125I]-Urotensin II
T4 construct: purchased Perkin Elmer Biosignal
T4 sequence (Q8VIH9 1-385): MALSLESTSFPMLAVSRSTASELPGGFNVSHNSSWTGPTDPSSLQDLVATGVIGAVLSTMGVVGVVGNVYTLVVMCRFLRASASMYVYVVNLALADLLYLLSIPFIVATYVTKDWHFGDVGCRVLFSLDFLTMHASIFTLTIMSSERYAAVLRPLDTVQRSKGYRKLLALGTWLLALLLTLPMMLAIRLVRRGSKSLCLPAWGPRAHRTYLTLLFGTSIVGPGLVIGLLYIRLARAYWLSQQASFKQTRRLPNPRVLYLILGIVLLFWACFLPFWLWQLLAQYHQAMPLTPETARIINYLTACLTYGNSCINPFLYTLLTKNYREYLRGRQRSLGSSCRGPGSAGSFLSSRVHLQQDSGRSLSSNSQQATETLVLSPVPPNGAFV
How it was run: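 Cloned mouse urotensin (mUR2) receptor membranes from Perkin Elmer Biosignal were immobilized in FlashPlate microplates using a proprietary coating. Each well got 19.5 μl buffer, then 0.5 μl of DMSO, reference ligand, or compound. Adding 5 μl of [125I]-Urotensin II, diluted to 5× final concentration in binding buffer, started binding. Plates were sealed with TopSeal-A and incubated 1 hour at room temperature in the dark. Wells were counted for 30 seconds each on a TopCount after a 60-second delay, and percentage inhibition was calculated.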

Human δ-opioid (DOP) = biological target: T5, Human δ-opioid (DOP) (Homo sapiens, UniProt P41143); assay: Radioligand binding, human δ-opioid (DOP) membranes, FlashPlate, [3H]-Bremazocine; conditions: compound at 10 μM, [3H]-Bremazocine
T5 construct: purchased Perkin Elmer Biosignal
How it was run: as §1

Human melanocortin (MC5) = biological target: T6, Human melanocortin (MC5) (Homo sapiens, UniProt P33032); assay: Radioligand binding, human melanocortin MC5 membranes, FlashPlate, [125I]-NDP-αMSH; conditions: compound at 10 μM, [125I]-NDP-αMSH
T6 construct: purchased Perkin Elmer Biosignal
How it was run: as §1

Human Melanocortin (MC4) = biological target: T7, Human Melanocortin (MC4) (Homo sapiens, UniProt P32245); assay: Radioligand binding, human melanocortin MC4 membranes, FlashPlate, [125I]-NDP-αMSH; conditions: compound at 10 μM, [125I]-NDP-αMSH
T7 construct: purchased Perkin Elmer Biosignal
How it was run: as §1

[1] = biological target: T8, Human neuropeptide Y (NPY-Y1) (Homo sapiens, UniProt P25929); assay: Radioligand binding, human neuropeptide Y NPY-Y1 membranes, FlashPlate, [125I]-PYY; conditions: compound at 10 μM, [125I]-PYY
T8 construct: purchased Perkin Elmer Biosignal
T8 sequence (P25929 1-384): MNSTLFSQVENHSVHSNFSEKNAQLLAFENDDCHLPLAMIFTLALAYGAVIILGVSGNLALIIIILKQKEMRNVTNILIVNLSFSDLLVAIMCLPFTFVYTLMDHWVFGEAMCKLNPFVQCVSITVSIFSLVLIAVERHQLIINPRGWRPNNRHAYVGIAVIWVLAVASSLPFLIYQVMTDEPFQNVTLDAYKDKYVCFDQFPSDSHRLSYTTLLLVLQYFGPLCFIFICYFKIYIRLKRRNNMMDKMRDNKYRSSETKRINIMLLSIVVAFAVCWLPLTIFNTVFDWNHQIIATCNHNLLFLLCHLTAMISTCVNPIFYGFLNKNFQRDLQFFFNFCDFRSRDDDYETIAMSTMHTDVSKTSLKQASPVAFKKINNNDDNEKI
How it was run: as §1

Human κ-Opioid (KOP) = biological target: T9, Human κ-Opioid (KOP) (Homo sapiens, UniProt P41145); assay: Radioligand binding, human κ-opioid (KOP) membranes, filtration, [3H]-Diprenorphine; conditions: compound at 10 μM, [3H]-Diprenorphine
T9 construct: purchased Perkin Elmer Biosignal
How it was run: as §2

Human μ-opioid (MOP) = biological target: T10, Human μ-opioid (MOP) (Homo sapiens, UniProt P35372); assay: Radioligand binding, human μ-opioid (MOP) membranes, FlashPlate, [3H]-Naloxone; conditions: compound at 10 μM, [3H]-Naloxone
T10 construct: purchased Perkin Elmer Biosignal
How it was run: as §1

[2] = biological target: T11, Human melanin-concentrating hormone (MCH1) (Homo sapiens, UniProt Q99705); assay: Radioligand binding, human melanin-concentrating hormone MCH1 membranes, FlashPlate, [125I]-S36057; conditions: compound at 10 μM
T11 construct: purchased Perkin Elmer Biosignal
How it was run: as §1

T2 sequence (P41146 whole entry): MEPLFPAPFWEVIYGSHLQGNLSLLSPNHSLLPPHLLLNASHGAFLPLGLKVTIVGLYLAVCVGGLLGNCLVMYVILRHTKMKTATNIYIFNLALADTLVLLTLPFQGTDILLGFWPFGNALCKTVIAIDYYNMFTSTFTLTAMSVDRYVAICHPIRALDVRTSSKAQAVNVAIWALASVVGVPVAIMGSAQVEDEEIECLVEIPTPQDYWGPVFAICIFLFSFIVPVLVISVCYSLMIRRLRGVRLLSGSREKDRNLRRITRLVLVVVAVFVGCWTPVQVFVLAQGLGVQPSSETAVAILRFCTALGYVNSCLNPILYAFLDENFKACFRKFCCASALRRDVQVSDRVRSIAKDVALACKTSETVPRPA
T3 sequence (P25103 whole entry): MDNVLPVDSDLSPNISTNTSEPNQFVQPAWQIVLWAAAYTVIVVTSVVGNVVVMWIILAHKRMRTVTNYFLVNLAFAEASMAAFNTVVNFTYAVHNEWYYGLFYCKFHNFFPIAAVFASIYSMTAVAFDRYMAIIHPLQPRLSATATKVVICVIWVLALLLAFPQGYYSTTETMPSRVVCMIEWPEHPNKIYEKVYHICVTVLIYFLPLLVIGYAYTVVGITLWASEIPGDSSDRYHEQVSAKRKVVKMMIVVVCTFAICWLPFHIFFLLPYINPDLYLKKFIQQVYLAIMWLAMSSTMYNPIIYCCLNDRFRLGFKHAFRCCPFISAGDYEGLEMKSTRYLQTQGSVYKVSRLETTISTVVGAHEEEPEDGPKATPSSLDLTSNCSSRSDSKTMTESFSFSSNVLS
T11 sequence (Q99705 whole entry): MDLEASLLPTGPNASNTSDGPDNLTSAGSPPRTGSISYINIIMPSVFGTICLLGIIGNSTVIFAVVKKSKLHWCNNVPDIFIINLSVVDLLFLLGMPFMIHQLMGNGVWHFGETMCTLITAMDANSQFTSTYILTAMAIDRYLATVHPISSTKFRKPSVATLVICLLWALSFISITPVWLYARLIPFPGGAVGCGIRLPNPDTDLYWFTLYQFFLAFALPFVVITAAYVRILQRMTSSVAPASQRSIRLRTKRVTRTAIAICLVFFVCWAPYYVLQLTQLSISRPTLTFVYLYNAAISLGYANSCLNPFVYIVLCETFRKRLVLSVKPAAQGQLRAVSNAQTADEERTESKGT
T6 sequence (P33032 whole entry): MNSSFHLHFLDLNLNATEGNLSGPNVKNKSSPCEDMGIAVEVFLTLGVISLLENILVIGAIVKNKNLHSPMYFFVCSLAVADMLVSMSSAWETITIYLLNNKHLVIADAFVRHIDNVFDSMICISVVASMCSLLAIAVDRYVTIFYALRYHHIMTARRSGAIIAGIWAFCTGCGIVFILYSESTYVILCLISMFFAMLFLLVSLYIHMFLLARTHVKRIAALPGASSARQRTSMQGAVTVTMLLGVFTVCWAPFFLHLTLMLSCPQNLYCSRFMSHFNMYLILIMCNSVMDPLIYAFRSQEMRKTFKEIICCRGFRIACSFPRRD
T1 sequence (P41968 whole entry): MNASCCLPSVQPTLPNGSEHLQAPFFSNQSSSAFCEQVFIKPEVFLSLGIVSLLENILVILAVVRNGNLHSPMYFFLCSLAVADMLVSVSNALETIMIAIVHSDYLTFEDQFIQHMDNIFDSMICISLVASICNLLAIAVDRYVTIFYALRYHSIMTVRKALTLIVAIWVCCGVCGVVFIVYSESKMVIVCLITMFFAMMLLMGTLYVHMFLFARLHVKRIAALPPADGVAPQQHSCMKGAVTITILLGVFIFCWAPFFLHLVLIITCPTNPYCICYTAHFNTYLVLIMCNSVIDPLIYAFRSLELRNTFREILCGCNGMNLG
T9 sequence (P41145 whole entry): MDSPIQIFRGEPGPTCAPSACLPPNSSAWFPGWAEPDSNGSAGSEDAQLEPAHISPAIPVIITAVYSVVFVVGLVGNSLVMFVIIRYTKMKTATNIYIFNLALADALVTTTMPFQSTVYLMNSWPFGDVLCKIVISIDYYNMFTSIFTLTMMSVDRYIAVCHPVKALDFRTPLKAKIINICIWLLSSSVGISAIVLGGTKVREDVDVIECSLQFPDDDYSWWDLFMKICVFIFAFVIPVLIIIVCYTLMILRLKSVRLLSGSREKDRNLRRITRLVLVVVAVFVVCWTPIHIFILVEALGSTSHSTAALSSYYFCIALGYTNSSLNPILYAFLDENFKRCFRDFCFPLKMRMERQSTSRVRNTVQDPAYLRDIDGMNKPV
T5 sequence (P41143 whole entry): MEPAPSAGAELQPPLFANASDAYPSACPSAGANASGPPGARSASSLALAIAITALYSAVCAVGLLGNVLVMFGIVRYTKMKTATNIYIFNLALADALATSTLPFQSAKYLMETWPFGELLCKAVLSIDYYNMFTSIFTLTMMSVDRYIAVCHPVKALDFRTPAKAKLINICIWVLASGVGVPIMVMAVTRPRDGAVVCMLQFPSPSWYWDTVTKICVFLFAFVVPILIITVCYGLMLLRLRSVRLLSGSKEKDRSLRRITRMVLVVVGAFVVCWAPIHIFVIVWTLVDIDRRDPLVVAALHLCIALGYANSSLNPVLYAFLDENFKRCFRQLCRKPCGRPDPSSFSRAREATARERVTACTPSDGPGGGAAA
T10 sequence (P35372 whole entry): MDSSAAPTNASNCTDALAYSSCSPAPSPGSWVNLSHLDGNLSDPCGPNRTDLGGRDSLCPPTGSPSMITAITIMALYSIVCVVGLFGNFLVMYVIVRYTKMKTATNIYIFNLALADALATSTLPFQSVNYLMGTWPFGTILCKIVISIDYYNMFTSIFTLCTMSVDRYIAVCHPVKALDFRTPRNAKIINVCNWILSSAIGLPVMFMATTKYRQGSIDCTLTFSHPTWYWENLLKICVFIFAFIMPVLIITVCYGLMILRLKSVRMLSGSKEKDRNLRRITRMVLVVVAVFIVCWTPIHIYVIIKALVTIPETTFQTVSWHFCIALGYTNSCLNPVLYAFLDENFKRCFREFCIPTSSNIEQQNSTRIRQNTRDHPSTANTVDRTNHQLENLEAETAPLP
T7 sequence (P32245 whole entry): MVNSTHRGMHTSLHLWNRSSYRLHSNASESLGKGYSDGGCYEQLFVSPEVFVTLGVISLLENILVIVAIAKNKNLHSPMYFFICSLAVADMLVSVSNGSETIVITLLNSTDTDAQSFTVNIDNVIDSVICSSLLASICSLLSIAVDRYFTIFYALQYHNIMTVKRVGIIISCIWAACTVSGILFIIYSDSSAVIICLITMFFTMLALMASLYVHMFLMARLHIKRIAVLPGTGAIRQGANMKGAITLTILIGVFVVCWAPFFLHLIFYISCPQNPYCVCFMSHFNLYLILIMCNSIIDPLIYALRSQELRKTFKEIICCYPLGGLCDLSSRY

| SMILES | A3: inhibition of radioligand binding, human melanocortin (MC3) (Human Melanocortin (MC3)) | A10: inhibition of radioligand binding, human opioid (ORL1) (Human opioid (ORL1)) | A8: inhibition of radioligand binding, human neurokinin (NK1) (Human neurokinin (NK1)) | A11: inhibition of radioligand binding, mouse urotensin (mUR2) (Mouse urotensin (mUR2)) | A1: inhibition of radioligand binding, human δ-opioid (DOP) (Human δ-opioid (DOP)) | A5: inhibition of radioligand binding, human melanocortin (MC5) (Human melanocortin (MC5)) | A4: inhibition of radioligand binding, human melanocortin (MC4) (Human Melanocortin (MC4)) | A9: inhibition of radioligand binding, human neuropeptide Y (NPY-Y1) [1] | A2: inhibition of radioligand binding, human κ-opioid (KOP) (Human κ-Opioid (KOP)) | A7: inhibition of radioligand binding, human μ-opioid (MOP) (Human μ-opioid (MOP)) | A6: inhibition of radioligand binding, human melanin-concentrating hormone (MCH1) ([2]; [125I]-S36057) | other results |
| --- | --- | --- | --- | --- | --- | --- | --- | --- | --- | --- | --- | --- |
| NCCC(=O)N[C@H]1C(OCc2ccc3ccccc3c2)O[C@H](COCc2ccccc2)[C@@H](O)[C@@H]1OCc1ccc(Cl)cc1 (stereo partly shown) [compound 439] | – | – | – | – | – | – | – | – | – | – | – | A3: inhibition of radioligand binding (Human Melanocortin (MC3); human MC3 membranes): − (“−” indicates less than 50% inhibition at 10 μM); A10: inhibition of radioligand binding (Human opioid (ORL1); human ORL1 membranes): − (“−” indicates less than 50% inhibition at 10 μM); A8: inhibition of radioligand binding (Human neurokinin (NK1); human NK1 membranes): + (“+” indicates greater than 50% inhibition at 10 μM); A11: inhibition of radioligand binding (Mouse urotensin (mUR2); mouse mUR2 membranes): − (“−” indicates less than 50% inhibition at 10 μM); A1: inhibition of radioligand binding (Human δ-opioid (DOP); human DOP membranes): − (“−” indicates less than 50% inhibition at 10 μM); A5: inhibition of radioligand binding (Human melanocortin (MC5); human MC5 membranes, 10 µM): + (“+” indicates greater than 50% inhibition at 10 μM); A4: inhibition of radioligand binding (Human Melanocortin (MC4); human MC4 membranes, 10 µM): + (“+” indicates greater than 50% inhibition at 10 μM); A9: inhibition of radioligand binding ([1]; human NPY-Y1 membranes): − (“−” indicates less than 50% inhibition at 10 μM); A2: inhibition of radioligand binding (Human κ-Opioid (KOP); human KOP membranes): − (“−” indicates less than 50% inhibition at 10 μM); A7: inhibition of radioligand binding (Human μ-opioid (MOP); human MOP membranes): − (“−” indicates less than 50% inhibition at 10 μM); A6: inhibition of radioligand binding ([2]; [125I]-S36057, human MCH1 membranes, 10 µM): − (“−” indicates less than 50% inhibition at 10 μM) |
| CO[C@H]1[C@H](O)[C@@H](COCc2ccc3ccccc3c2)OC(OCc2cccc(O)c2)[C@@H]1NC(=O)CCNC(=N)N (stereo partly shown) [compound 166] | – | – | – | – | – | – | – | – | – | – | – | A3 radioligand binding, percentage inhibition (Human Melanocortin (MC3)): − (“−” indicates less than 50% inhibition at 10 μM); A10 radioligand binding, percentage inhibition (Human opioid (ORL1)): − (“−” indicates less than 50% inhibition at 10 μM); A8 radioligand binding, percentage inhibition (Human neurokinin (NK1)): + (“+” indicates greater than 50% inhibition at 10 μM); A11 radioligand binding, percentage inhibition (Mouse urotensin (mUR2)): − (“−” indicates less than 50% inhibition at 10 μM); A1 radioligand binding, percentage inhibition (Human δ-opioid (DOP)): − (“−” indicates less than 50% inhibition at 10 μM); A5 radioligand binding, percentage inhibition (Human melanocortin (MC5)): + (“+” indicates greater than 50% inhibition at 10 μM); A4 radioligand binding, percentage inhibition (Human Melanocortin (MC4)): + (“+” indicates greater than 50% inhibition at 10 μM); A9 radioligand binding, percentage inhibition [1]: − (“−” indicates less than 50% inhibition at 10 μM); A2 radioligand binding, percentage inhibition (Human κ-Opioid (KOP)): − (“−” indicates less than 50% inhibition at 10 μM); A7 radioligand binding, percentage inhibition (Human μ-opioid (MOP)): − (“−” indicates less than 50% inhibition at 10 μM); A6 radioligand binding, percentage inhibition ([2]; [125I]-S36057): − (“−” indicates less than 50% inhibition at 10 μM) |
| N=C(N)NCC(=O)N[C@H]1C(OCc2ccc(Cl)cc2)O[C@H](COCc2ccccc2)[C@@H](O)[C@@H]1OCc1ccc2ccccc2c1 (stereo partly shown) [compound 514] | + (“+” indicates greater than 50% inhibition at 10 μM) | + (“+” indicates greater than 50% inhibition at 10 μM) | + (“+” indicates greater than 50% inhibition at 10 μM) | − (“−” indicates less than 50% inhibition at 10 μM) | − (“−” indicates less than 50% inhibition at 10 μM) | + (“+” indicates greater than 50% inhibition at 10 μM) | + (“+” indicates greater than 50% inhibition at 10 μM) | + (“+” indicates greater than 50% inhibition at 10 μM) | − (“−” indicates less than 50% inhibition at 10 μM) | − (“−” indicates less than 50% inhibition at 10 μM) | + (“+” indicates greater than 50% inhibition at 10 μM) | – |
| COC1C(O)C(COCc2ccc3ccccc3c2)OC(OCc2ccc(Cl)cc2)C1NC(=O)C1CCCN(C(=N)N)C1 (stereo not shown) [compound 348] | − (“−” indicates less than 50% inhibition at 10 μM) | − (“−” indicates less than 50% inhibition at 10 μM) | + (“+” indicates greater than 50% inhibition at 10 μM) | − (“−” indicates less than 50% inhibition at 10 μM) | − (“−” indicates less than 50% inhibition at 10 μM) | + (“+” indicates greater than 50% inhibition at 10 μM) | − (“−” indicates less than 50% inhibition at 10 μM) | − (“−” indicates less than 50% inhibition at 10 μM) | − (“−” indicates less than 50% inhibition at 10 μM) | − (“−” indicates less than 50% inhibition at 10 μM) | − (“−” indicates less than 50% inhibition at 10 μM) | – |
| NCCC(=O)NC1O[C@H](CO)[C@@H](O)[C@H](OCc2cccc3ccccc23)[C@H]1NC(=O)c1ccccc1 (stereo partly shown) [compound 358] | − (“−” indicates less than 50% inhibition at 10 μM) | − (“−” indicates less than 50% inhibition at 10 μM) | − (“−” indicates less than 50% inhibition at 10 μM) | − (“−” indicates less than 50% inhibition at 10 μM) | − (“−” indicates less than 50% inhibition at 10 μM) | − (“−” indicates less than 50% inhibition at 10 μM) | − (“−” indicates less than 50% inhibition at 10 μM) | + (“+” indicates greater than 50% inhibition at 10 μM) | − (“−” indicates less than 50% inhibition at 10 μM) | − (“−” indicates less than 50% inhibition at 10 μM) | − (“−” indicates less than 50% inhibition at 10 μM) | – |
